Columns and labels:
[1] = tested on: MCF7; test: MCF7 cell growth inhibition; assay type: cell-based, human; conditions: Homo sapiens, MCF7, Tables 8-15; no unit printed there
Description: (§1) In FIG. 9-24 in vitro IC50 values for the GGTase I activity are reported. In Tables 7-15 in cell GI50 values for the growth inhibition of a variety of cancer cell lines (e.g., Jurkat, K562, MDA-MB-231, BT474, MCF7, MiaPaCa2, Aspc-1, Panc-1, Capan-2, CFpac-1, and MCF10a) are reported.
(§2) Cell viability was determined by Cell Counting Kit-8 (CCK-8, Dojindo, Kumamoto, Japan) as described previously (31). Cell viability was calculated relative to the DMSO control. Cell cycle profile was analyzed by flow cytometry as described previously (32).

[2] = tested on: Capan-2; test: Capan-2 cell growth inhibition; assay type: cell-based, human; conditions: Homo sapiens, Capan-2, Tables 8-15; no unit printed there
Description: as §1, §2

[3] = tested on: Panc-1; test: Panc-1 cell growth inhibition; assay type: cell-based, human; conditions: Homo sapiens, PANC-1, Tables 8-15; no unit printed there
Description: as §1
(§3) Panc-1 cells (Pancreatic cancer cell line) and Jurkat cells (T-cell leukemia) were treated with 12.5 μM of P5-H6 or 12.5 μM of mP5-H6a for 72 hours. The cell number was counted as described in Example 5.
as §2

[4] = tested on: BT474; test: BT474 cell growth inhibition; assay type: cell-based, human; conditions: Homo sapiens, BT-474, Tables 8-15; no unit printed there
Description: as §1, §2

[5] = tested on: MCF10a; test: MCF10a cell growth inhibition; assay type: cell-based; conditions: Homo sapiens, MCF-10A, Tables 8-15; no unit printed there
Text: as §1

[6] = tested on: CFpac-1; test: CFpac-1 cell growth inhibition; assay type: cell-based, human; conditions: Homo sapiens, CFPAC-1, Tables 8-15; no unit printed there
Description: as §1, §2

[7] = tested on: MiaPaCa2; test: MiaPaCa2 cell growth inhibition; assay type: cell-based, human; conditions: Homo sapiens, MIA PaCa-2, Tables 8-15; no unit printed there
Description: as §1, §2

[8] = tested on: K562 cells; test: K562 cell growth inhibition; assay type: cell-based, human; conditions: Homo sapiens, K562, Tables 8-15; no unit printed there
Description: K562 cells are a cell line of human erythroleukemia cells. The K562 cells were treated with P3-E5, P5-H6 or GGTI-298 (a known GGTI compound illustrated in FIG. 27) for 72 hours and then cell number was counted using cell counting kit-8 (Dojindo, Gaithersburg, Md.). Cell viability relative to the DMSO control and the known GGTI compound is plotted in FIG. 23.
as §2

[9] = tested on: MDA-MB-231; test: MDA-MB-231 cell growth inhibition; assay type: cell-based, human; conditions: Homo sapiens, MDA-MB-231, Tables 8-15; no unit printed there
Description: as §1, §2

[10] = tested on: Jurkat cells; test: Jurkat cell growth inhibition; assay type: cell-based, human; conditions: Homo sapiens, Jurkat, Tables 8-15; no unit printed there; read-out: Jurkat GI50
Description: In Table 4 in cell GI50 values for the growth inhibition of Jurkat cells are reported. The GI50 value is the concentration of a test compound needed to produce 50% growth inhibition in the cell type listed. In Table 4 the isolated yield of each synthetic step for the synthesis of corresponding compounds are also reported.
as §3, §2

[11] = tested on: Aspc-1; test: Aspc-1 cell growth inhibition; assay type: cell-based, human; conditions: Homo sapiens, ASPC1, Tables 8-15; no unit printed there
Description: as §1, §2

[12] = target: T1, FTase (Rattus norvegicus, UniProt Q02293+Q04631); test: In vitro FTase assay (K-Ras4B substrate, [3H]FPP); assay type: biochemical; conditions: at concentrations at which GGTase-I was inhibited by more than 90%
T1 construct: purchased JENA BIOSCIENCE
Text: To further characterize the pilot library, inhibitors of protein farnesyltransferase were identified. This was accomplished by using K-Ras4B as a substrate protein, tritiated farnesylpyrophosphate ([^3H]FPP) and protein farnesyltransferase. See Finegold, A. A., Johnson, D. I., Farnsworth, C. C., Gelb, M. H., Judd, S. R., Glomset, J. A. and Tamanoi, F. (1991) Protein geranylgeranyltransferase of Saccharomyces cerevisiae is specific for Cys-Xaa-Xaa-Leu motif and requires the CDC43 gene product but not the DPR1 gene product. Proc. Natl. Acad. Sci. USA 88, 4448-4452. […] On the other hand, the structure of the compounds P1-F11, P2-B7 and P2-E9 resemble those of GGTIs. The FTI P1-F11 resembles the GGTI P1-F10, while the FTI P2-B7 resembles the GGTI P2-C10. The FTI P2-E9 is similar to the GGTI P2-G3. Similarity of some GGTI and FTI compounds may point to common structural features between the two closely related enzymes. As described before, FTase and GGTase I have similar three-dimensional structures and a shared alpha subunit. On the other hand, FTase specific inhibitors may recognize a region(s) that is different between the two enzymes.
Examples 2-8 illustrate assays of bioactivity. These methods are applicable to the compounds of the present invention having the particular linkers and scaffolds described herein, to determine their activity. […] Varying concentrations of the two compounds were added to each enzyme reaction. The FTase (protein farnesyltransferase) assay was carried out using K-Ras4B as a substrate protein, FTase (JENA Bioscience, San Diego, Calif.) and [3H]farnesyl pyrophosphate. Incubation was for 30 min at 37° C.
(§4) GGTase-I and FTase activities were determined by following the incorporation of radiolabeled isoprenoid [^3H]-geranylgeranyl or [^3H]-farnesyl into substrate proteins. FTase or GGTase-I (50 nM) were used to initiate reactions containing 0.4 μM of [^3H]-FPP or 0.5 μM of [^3H]-GGPP and 2 μM of MBP-tagged substrates (K-Ras4B for FTase; RhoA for GGTase-I) in 20 μl of buffer {50 mM Tris-HCl (pH 7.5), 10 mM MgCl2, […] and 5 mM DTT}. Inhibitors were added at the indicated concentrations. The final DMSO concentration was 2.5% for all samples.
(§5) Reactions were carried out for 10 min at 30° C. The reaction mixture was spotted onto a filter paper, treated with 10% trichloroacetic acid (TCA) followed by ethanol and acetone washing. The filter was counted using a scintillation counter. Kinetic assays in which the GGPP concentration was varied employed fixed concentrations of GGTase-I and RhoA, and reactions were carried out for 5 min. Similarly, fixed concentrations of GGTase-I and GGPP were used when the amount of RhoA was varied.

[13] = tested on: geranylgeranylated Rheb (Rheb-CSVL) in HEK 293 cells; test: Rheb-CSVL mobility shift in HEK 293 cells; assay type: cell-based, human; conditions: 48 hours
Text: Finally, we investigated in vivo effects of compounds 22 (also known as UC-22) and 23 (also known as UC-23). Human embryonic kidney (HEK) 293 cells were transfected with the Rheb-CSVL construct that expresses the geranylgeranylated form of the Rheb protein. Inhibition of the geranylgeranylation of this protein can be detected from a shift in its mobility on SDS polyacrylamide gel; the unprocessed form appears as a slowly migrating band.
Human embryonic kidney (HEK) 293 cells expressing Myc-HA tagged-Rheb-CVSL (upper) or Myc-HA tagged-Rheb-WT (lower) were treated with P3-E5 for 48 hours and then lysed. The cell lysates were run on a SDS polyacrylamide gel and immunoblotted using anti-Myc or anti-Actin antibody. The descriptors P and U indicate processed and unprocessed Rheb, respectively.
Human embryonic kidney (HEK) 293 cells expressing Myc-HA tagged-Rheb-CVSL (upper) or Myc-HA tagged-Rheb-WT (lower) were treated with mP5-H6a (also referred to as mP5-H6), or GGTI-298 for 48 hours and then lysed. Lysates were run on a SDS polyacrylamide gel and immunoblotted with anti-Myc or anti-Actin antibody.

[14] = target: T2, GGTase-I (Rattus norvegicus, UniProt P53610+Q04631); test: In vitro GGTase-I enzyme assay (IC50, kinetics); assay type: biochemical; conditions: Tables 8-15; no unit printed there (Table 7 head: μM unless otherwise specified); read-out: In vitro (GGTase I IC50)
T2 construct: purchased JENA BIOSCIENCE
Description: The GGTase-I assay was carried out using RhoA as a substrate protein, GGTase-I (JENA Bioscience) and [3H]geranylgeranyl pyrophosphate. Incubation was for 30 min at 37° C. GGTase-II (or RabGGTase) assay was carried out using YPTI as a substrate protein, GGTase-II (Calbiochem, San Diego, Calif.) plus REP1 (Calbiochem) and [3H]geranylgeranyl pyrophosphate. Incubation was for 30 min at 37° C. FIGS. 20D-20F show the three dimensional structure of GGTase I (D), FTsse (E) and GGTase II (F) which can be obtained from X-ray diffraction studies of protein crystals.
as §4, §5

| Structure (SMILES) | GI50 [2] | GI50 [3] | GI50 [4] | GI50 [6] | GI50 [7] | GI50 [8] | GI50 [9] | GI50 [10] | GI50 [11] | inhibition of FTase [12] | inhibition of geranylgeranylation of Rheb-CSVL (slowly migrating unprocessed band) [13] | further results |
| --- | --- | --- | --- | --- | --- | --- | --- | --- | --- | --- | --- | --- |
| Cc1ccccc1S(=O)(=O)N1[C@@H](c2ccc(Cl)cc2)C(C(=O)N[C@@H](Cc2ccccc2)C(N)=O)=C[C@H]1C(C)(C)C [P61A6] | 11.5 µM | 13 µM | 8.64 µM | 6.38 µM | 7.48 µM | 6.28 µM | 8.25 µM | 4.89 µM | 12.4 µM | – | – | GI50 [1]: 3.72 µM; GI50 [5]: 13.2 µM |
| Cc1ccccc1S(=O)(=O)N1[C@@H](c2ccc(Cl)cc2)C(C(=O)O)=C[C@H]1C(C)(C)C [compound 22] | – | – | – | – | – | – | – | – | – | did not inhibit FTase | inhibit geranylgeranylation within the cell | – |
| Cc1ccccc1S(=O)(=O)N1C(c2ccc(Cl)cc2)CC=C(C(=O)O)[C@@H]1c1cccc(Cl)c1 (stereo partly shown) [compound 23] | – | – | – | – | – | – | – | – | – | did not inhibit FTase | inhibit geranylgeranylation within the cell | – |
| Cc1ccccc1S(=O)(=O)N1[C@@H](c2ccc(Cl)cc2)C(C(=O)N[C@@H](CC(C)C)C(N)=O)=C[C@H]1C(C)(C)C [drawing 156] | – | – | 5.28 µM | – | – | 6.7 µM | 6.68 µM | 6.58 µM | – | – | – | IC50 [14]: 8.1 µM |
| Cc1ccccc1S(=O)(=O)N1[C@@H](c2ccc(Cl)cc2)C(C(=O)N[C@@H](CC(C)C)C(N)=O)=C[C@H]1C(C)(C)C [drawing 164] | 6.69 µM | 6.45 µM | – | < 1.25 µM | 7.24 µM | – | – | – | 11.4 µM | – | – | – |
| Cc1ccccc1S(=O)(=O)N1C(c2cccc(Cl)c2)C(C(=O)N[C@@H](CC(C)C)C(N)=O)=CC[C@H]1c1ccc(Cl)cc1 (stereo partly shown) [drawing 202] | 14 µM | – | – | 13.7 µM | 12 µM | – | – | – | – | – | – | – |
